pIC50, pKi: −log10 of the molar value.
Key:
[1] = target: T1, Amine oxidase [flavin-containing] A (Homo sapiens, UniProt P21397); test: Inhibition of human recombinant MAOA expressed in baculovirus infected BTI insect cells after 20 mins by spectrofluorimetric analysis
T1 sequence (P21397 whole entry): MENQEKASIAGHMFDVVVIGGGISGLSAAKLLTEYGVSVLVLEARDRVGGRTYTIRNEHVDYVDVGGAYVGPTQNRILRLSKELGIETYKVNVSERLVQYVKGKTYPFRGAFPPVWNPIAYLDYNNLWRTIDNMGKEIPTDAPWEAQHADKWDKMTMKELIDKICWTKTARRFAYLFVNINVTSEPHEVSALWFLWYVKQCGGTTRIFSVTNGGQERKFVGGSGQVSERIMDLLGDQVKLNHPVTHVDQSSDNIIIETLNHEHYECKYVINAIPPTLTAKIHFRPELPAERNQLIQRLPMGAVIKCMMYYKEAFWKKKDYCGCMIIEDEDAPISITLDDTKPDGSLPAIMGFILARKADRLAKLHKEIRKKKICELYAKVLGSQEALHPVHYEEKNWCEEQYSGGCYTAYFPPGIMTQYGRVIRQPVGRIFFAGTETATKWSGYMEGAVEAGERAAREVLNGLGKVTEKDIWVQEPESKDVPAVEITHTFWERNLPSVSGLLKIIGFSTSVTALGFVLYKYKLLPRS

[2] = target: T2, Amine oxidase [flavin-containing] B (Homo sapiens, UniProt P27338); test: Inhibition of human recombinant MAOB expressed in baculovirus infected BTI insect cells after 20 mins by spectrofluorimetric analysis
T2 sequence (P27338 whole entry): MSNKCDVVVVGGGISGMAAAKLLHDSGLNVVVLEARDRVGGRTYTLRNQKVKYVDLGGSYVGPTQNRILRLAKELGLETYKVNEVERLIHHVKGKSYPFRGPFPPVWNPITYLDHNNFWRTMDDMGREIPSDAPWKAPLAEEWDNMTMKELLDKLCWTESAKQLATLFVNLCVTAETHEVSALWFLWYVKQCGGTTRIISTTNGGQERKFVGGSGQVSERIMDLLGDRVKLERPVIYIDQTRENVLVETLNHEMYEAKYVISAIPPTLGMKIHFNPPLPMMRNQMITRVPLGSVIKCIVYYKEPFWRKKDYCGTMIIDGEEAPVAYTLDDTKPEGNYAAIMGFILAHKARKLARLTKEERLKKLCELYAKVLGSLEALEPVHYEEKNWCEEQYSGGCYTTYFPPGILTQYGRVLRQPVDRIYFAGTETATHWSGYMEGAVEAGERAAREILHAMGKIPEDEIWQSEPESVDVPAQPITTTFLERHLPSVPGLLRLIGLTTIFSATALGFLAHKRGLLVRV

Homo sapiens = species on record: Homo sapiens; test: Selectivity ratio of Ki for human recombinant MAOA to Ki for human recombinant MAOB
[3] = target: T2, Amine oxidase [flavin-containing] B; test: Reversible inhibition of human recombinant MAOB expressed in baculovirus infected BTI insect cells at 2 times IC50 concentration preincubated for 60 mins measured after 15 mins; conditions: 0.25 h
[4] = target: T2, Amine oxidase [flavin-containing] B; test: Competitive inhibition of human recombinant MAOB expressed in baculovirus infected BTI insect cells at 0.015 to 0.06 uM by Lineweaver-Burke plot analysis

SMILES	pIC50 [1]	pKi [1]	pIC50 [2]	pKi [2]	Selectivity ratio (Homo sapiens)	inhibition (INH) [3]	inhibition (INH) [4]
Cc1cc2cc(NC(=O)/C=C/c3ccccc3)ccc2[nH]1	3.18	3.76	4.73	5.10	22	–	–
O=C(/C=C/c1ccccc1)Oc1ccc2c(c1)CC(=O)O2	4.90	5.48	5.92	6.28	6	–	–
Cc1cc2cc(NC(=O)C3CCCCC3)ccc2[nH]1	4.16	4.74	5.16	5.52	6	–	–
Cc1cc2cc(NC(=O)/C=C/c3cccc(Cl)c3)ccc2[nH]1	5.12	5.69	5.01	5.37	0.5	–	–
O=C1Cc2cc(OC(=O)c3cccc(Cl)c3)ccc2O1	5.12	5.69	6.00	6.37	5	Active	–
Cc1cc2cc(NC(=O)c3cccc(S(=O)(=O)O)c3)ccc2[nH]1	3.59	4.17	3.75	4.12	0.9	–	–
O=C(/C=C/c1cccc(Cl)c1)Oc1ccc2c(c1)CC(=O)O2	5.41	5.99	6.36	6.72	5	–	–
O=C1Cc2cc(OC(=O)c3ccccc3)ccc2O1	4.94	5.52	5.05	5.42	0.8	–	–
Cc1cc2cc(NC(=O)c3ccc(Cl)c(Cl)c3)ccc2[nH]1	5.01	5.59	7.22	7.52	99	Active	Active
Cc1cc2cc(NC(=O)c3ccccc3)ccc2[nH]1	3.82	4.40	5.42	5.78	24	–	–
Cc1cc2cc(NC(=O)c3ccc[n+](C)c3)ccc2[nH]1	4.68	5.26	–	–	–	–	–
Cc1cc2cc(NC(=O)c3cccc(Cl)c3)ccc2[nH]1	4.51	5.09	6.12	6.48	25	–	–

From ChEMBL document CHEMBL1250475, “Inhibition of monoamine oxidase by indole and benzofuran derivatives” (Eur J Med Chem, 2010)
